In patent publication US20040162339A1, “Heterocyclic biaryl compounds, pharmaceutical and cosmetic compositions containing them and uses thereof” (priority 1996, published 2004) one finds melting point data, which are given here for 2 compounds.

`CC1(C)CCC(C)(C)c2cc(C3(CC(=O)O)COc4cc(C(=O)O)ccc43)ccc21` (centres unmarked) gave a melting point of 268 °C.

In turn, `CCCCCCC1(c2ccc3c(c2)C(C)(C)CCC3(C)C)COc2cc(C(=O)O)ccc21` (centres unmarked) came in with a melting point of 137 °C.

The term melting point denotes the temperature of the solid-liquid transition.
